This passage reports IC50 results from patent publication US20090042964A1, “AMINO-5-[SUBSTITUTED-4-(DIFLUOROMETHOXY)PHENYL]-5-PHENYLIMIDAZOLONE COMPOUNDS AS BETA-SECRETASE INHIBITORS” (Wyeth, priority 2007, published 2009).

This test concerns the target human BACE1 (Homo sapiens, UniProt P56817). As to the kind of experiment: Fluorescent kinetic assay, evaluation of BACE1 binding affinity of test compounds. The class given is biochemical. The settings on record: 10 nM human BACE1, 25 μM substrate WABC-6, pH 4.5, room temperature. The protocol: Concentration is determined by absorbance at 354 nm using an extinction coefficient of 18172 M^-1 cm^-1, the concentration of stock substrate is corrected, and the substrate stock stored in small aliquots in -80° C. […] Determination of Stock Enzyme Concentration: the stock concentration of each enzyme is determined by absorbance at 280 nm using an of 64150 M^-1 cm^-1 for hBACE1 and MuBACE1, 62870 M^-1 cm^-1 for hBACE2 in 6 M Guanidinium Hydrochloride (from Research Organics, Cat. # 5134G-2), pH 6. […] Biochem. 182, 319-326). Dilution and mixing steps: total reaction volume: 100 μL 2× inhibitor dilutions in buffer A (66.7 mM Na-Acetate, pH 4.5, 0.0667% CHAPS) were prepared, 4× enzyme dilution in buffer A (66.7 mM Na-Acetate, pH 4.5, 0.0667% CHAPS) were prepared, 100 μM substrate dilution in 1×PBS was prepared, and 50 μL 2× Inhibitor, 25 μL 100 μM substrate are added to each well of 96-well plate (from DYNEX Technologies, VWR #: 11311-046), immediately followed by 25 μL 4× enzyme (added to the inhibitor and substrate mix), and the fluorescence readings are initiated.

Where two headings read alike, the source gives them in different places.

Chain of human BACE1 (P56817 46-501): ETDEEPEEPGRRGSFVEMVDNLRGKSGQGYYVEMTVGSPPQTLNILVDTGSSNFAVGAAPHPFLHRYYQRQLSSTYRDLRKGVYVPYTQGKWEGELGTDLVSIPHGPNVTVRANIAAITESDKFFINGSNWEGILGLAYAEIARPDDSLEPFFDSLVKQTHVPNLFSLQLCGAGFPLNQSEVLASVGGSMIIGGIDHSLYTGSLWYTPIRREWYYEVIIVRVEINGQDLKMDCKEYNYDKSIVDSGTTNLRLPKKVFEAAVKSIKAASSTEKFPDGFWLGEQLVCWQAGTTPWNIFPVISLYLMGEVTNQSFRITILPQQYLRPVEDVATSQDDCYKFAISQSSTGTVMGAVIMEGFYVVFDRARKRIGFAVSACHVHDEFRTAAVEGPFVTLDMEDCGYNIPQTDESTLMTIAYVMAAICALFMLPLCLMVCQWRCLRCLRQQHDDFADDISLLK

As for `COc1ccc(C2(c3ccc(OC(F)F)c(C)c3)N=C(N)N(C)C2=O)cc1C#N` (stereo not drawn) [Example 21, 5-{2-Amino-4-[4-(difluoromethoxy)-3-methylphenyl]-1-methyl-5-oxo-4,5-dihydro-1H-imidazol-4-yl}-2-methoxybenzonitrile], the IC50 (BACE1 IC50 μM) lay in the range of 0.11 to 1 µM.
Consider `CCCc1cc([C@]2(c3ccccc3)N=C(N)N(C)C2=O)ccc1OC(F)F` (single isomer, unassigned) [Example 80], for which the concentration for half-maximal inhibition (IC50) (read-out: BACE1 IC50) was over 1 µM.
In turn, `CCc1cc(C2(c3ccc(F)cc3)N=C(N)N(C)C2=O)ccc1OC(F)F` (stereo not drawn) [Example 7, 2-Amino-4-[4-(difluoromethoxy)-3-ethylphenyl]-4-(4-fluorophenyl)-1-methyl-1H-imidazol-5(4H)-one] gave an IC50 (BACE1 IC50 μM) of 0.11 to 1 µM.
As to `Cc1cc([C@@]2(c3ccc(F)c(OCCC(F)F)c3)N=C(N)N(C)C2=O)ccc1OC(F)F` [Example 131, (5S)-2-Amino-5-[4-(difluoromethoxy)-3-methylphenyl]-5-[3-(3,3-difluoropropoxy)-4-fluorophenyl]-3-methyl-3,5-dihydro-4H-imidazol-4-one], the half-inhibitory concentration (IC50) (read-out: BACE1 IC50) is over 1 µM.
The same measure, in the same setting: to `CCc1cc(C2(c3ccc(F)c(C#CCF)c3)N=C(N)N(C)C2=O)ccc1OC(F)F` (stereo not drawn) [Example 159, 2-Amino-5-[4-(difluoromethoxy)-3-ethylphenyl]-5-[4-fluoro-3-(3-fluoroprop-1-yn-1-yl)phenyl]-3-methyl-3,5-dihydro-4H-imidazol-4-one] belongs under 0.1 µM; to `CN1C(=O)C(c2ccccc2)(c2ccc(OC(F)F)c(CCO)c2)N=C1N` (stereo not drawn) [Example 140, 2-Amino-5-[4-(difluoromethoxy)-3-(2-hydroxyethyl)phenyl]-3-methyl-5-phenyl-3,5-dihydro-4H-imidazol-4-one], 0.11 to 1 µM.
Still for that read-out and setting: to `CCc1cc([C@]2(c3ccc(F)c(C#CCC(C)C)c3)N=C(N)N(C)C2=O)ccc1OC(F)F` [Example 150, (5R)-2-Amino-5-[4-(difluoromethoxy)-3-ethylphenyl]-5-[4-fluoro-3-(4-methylpent-1-yn-1-yl)phenyl]-3-methyl-3,5-dihydro-4H-imidazol-4-one] belongs under 0.1 µM; to `CCCOc1cc([C@]2(c3ccc(OC(F)F)c(C)c3)N=C(N)N(C)C2=O)ccc1F` [Example 115, (5S)-2-Amino-5-[4-(difluoromethoxy)-3-methylphenyl]-5-(4-fluoro-3-propoxyphenyl)-3-methyl-3,5-dihydro-4H-imidazol-4-one], 0.11 to 1 µM.
On the same count and under the same terms, in the case of `CCc1cc([C@]2(c3cccc(C#CCF)c3)N=C(N)N(C)C2=O)ccc1OC(F)F` [Example 161, (5S)-2-Amino-5-[4-(difluoromethoxy)-3-ethylphenyl]-5-[3-(3-fluoroprop-1-yn-1-yl)phenyl]-3-methyl-3,5-dihydro-4H-imidazol-4-one] it was under 0.1 µM.
In turn, `Cc1cc(C2(c3ccccc3)N=C(N)N(C)C2=O)cc(C)c1OC(F)F` (stereo not drawn) [Example 5, 2-Amino-5-[4-(difluoromethoxy)-3,5-dimethylphenyl]-3-methyl-5-phenyl-3,5-dihydro-4H-imidazol-4-one] had an IC50 (BACE1 IC50 μM) of 0.11 to 1 µM.
As for `CN1C(=O)[C@](c2cccc(C#CC3CC3)c2)(c2ccc(OC(F)F)c(C3CC3)c2)N=C1N` (single isomer, unassigned) [Example 177], the IC50 (read-out: BACE1 IC50) is under 0.1 µM.
Turning to `CN1C(=O)C(c2ccc(F)c(OCCC(F)F)c2)(c2ccc(OC(F)F)c(C3CC3)c2)N=C1N` (stereo not drawn) [Example 133, 2-Amino-5-[3-cyclopropyl-4-(difluoromethoxy)phenyl]-5-[3-(3,3-difluoropropoxy)-4-fluorophenyl]-3-methyl-3,5-dihydro-4H-imidazol-4-one], the IC50 (read-out: BACE1 IC50) is under 0.1 µM.
Still for that read-out and setting: to `COC/C=C/c1cccc(C2(c3ccc(OC(F)F)c(Cl)c3)N=C(N)N(C)C2=O)c1` (stereo not drawn) [Example 66, 2-Amino-5-[3-chloro-4-(difluoromethoxy)phenyl]-5-[3-((E)-3-methoxyprop-1-enyl)phenyl]-3-methyl-3,5-dihydro-4H-imidazol-4-one] belongs under 0.1 µM; to `CCc1cc([C@]2(c3ccc(F)c(C#CC(C)C)c3)N=C(N)N(C)C2=O)ccc1OC(F)F` [Example 154, (5R)-2-Amino-5-[4-(difluoromethoxy)-3-ethylphenyl]-5-[4-fluoro-3-(3-methylbut-1-yn-1-yl)phenyl]-3-methyl-3,5-dihydro-4H-imidazol-4-one], under 0.1 µM; to `CCCOc1cccc(C2(c3ccc(OC(F)F)c(Cl)c3)N=C(N)N(C)C2=O)c1` (stereo not drawn) [Example 39, 2-Amino-5-[3-chloro-4-(difluoromethoxy)phenyl]-3-methyl-5-(3-propoxyphenyl)-3,5-dihydro-4H-imidazol-4-one], under 0.1 µM.
For the compound `CN1C(=O)C(c2ccccc2)(c2ccc(OC(F)F)c(CF)c2)N=C1N` (stereo not drawn) [Example 13, 2-Amino-5-[4-(difluoromethoxy)-3-(fluoromethyl)phenyl]-3-methyl-5-phenyl-3,5-dihydro-4H-imidazol-4-one], the IC50 (BACE1 IC50 μM) fell in the range of 0.11 to 1 µM.
For the compound `CCC#Cc1cc(C2(c3ccc(OC(F)F)c(C)c3)N=C(N)N(C)C2=O)ccc1F` (stereo not drawn) [Example 82, 2-amino-5-(3-but-1-yn-1-yl-4-fluorophenyl)-5-[4-(difluoromethoxy)-3-methylphenyl]-3-methyl-3,5-dihydro-4H-imidazol-4-one], the half-inhibitory concentration (IC50) (read-out: BACE1 IC50) was under 0.1 µM.
Same read-out and setting: in the case of `CN1C(=O)C(c2cccc(C#CCCCF)c2)(c2ccc(OC(F)F)c(C3CC3)c2)N=C1N` (stereo not drawn) [Example 191, 2-amino-4-(3-cyclopropyl-4-(difluoromethoxy)phenyl)-4-(3-(5-fluoropent-1-ynyl)phenyl)-1-methyl-1H-imidazol-5(4H)-one] it was under 0.1 µM; in that of `CCCC#Cc1cc([C@]2(c3ccc(OC(F)F)c(C)c3)N=C(N)N(C)C2=O)ccc1F` (single isomer, unassigned) [Example 73], 0.11 to 1 µM; in that of `CN1C(=O)C(c2cccc(C#CCCCO)c2)(c2ccc(OC(F)F)c(C3CC3)c2)N=C1N` (stereo not drawn) [Example 188, 2-amino-4-(3-cyclopropyl-4-(difluoromethoxy)phenyl)-4-(3-(5-hydroxypent-1-ynyl)phenyl)-1-methyl-1H-imidazol-5(4H)-one], under 0.1 µM.
For the compound `CN1C(=O)[C@](c2ccccc2)(c2ccc(OC(F)F)c(CCF)c2)N=C1N` (single isomer, unassigned) [Example 75], under “read-out: BACE1 IC50”, the IC50 is under 0.1 µM.
As to `CN1C(=O)C(c2ccccc2)(c2ccc(OC(F)F)c(C(F)(F)F)c2)N=C1N` (stereo not drawn) [Example 12, 2-Amino-5-[4-(difluoromethoxy)-3-(trifluoromethyl)phenyl]-3-methyl-5-phenyl-3,5-dihydro-4H-imidazol-4-one], the IC50 (BACE1 IC50 μM) was in the range of 0.11 to 1 µM.
Take `Cc1cc(C2(c3ccc(F)c(/C=C/CCF)c3)N=C(N)N(C)C2=O)ccc1OC(F)F` (stereo not drawn) [Example 58, 2-Amino-5-[4-(difluoromethoxy)-3-methylphenyl]-5-[4-fluoro-3-((E)-4-fluorobut-1-enyl)phenyl]-3-methyl-3,5-dihydro-4H-imidazol-4-one]: the IC50 (read-out: BACE1 IC50) is under 0.1 µM.
`Cc1cc(C2(c3ccc(F)c(C#CCCF)c3)N=C(N)N(C)C2=O)ccc1OC(F)F` (stereo not drawn) [Example 203, 2-amino-5-[4-(difluoromethoxy)-3-methylphenyl]-5-[4-fluoro-3-(4-fluorobut-1-yn-1-yl)phenyl]-3-methyl-3,5-dihydro-4H-imidazol-4-one]: where the note is “read-out: BACE1 IC50”, the half-maximal inhibitory concentration (IC50) was under 0.1 µM.
Same read-out and setting: in the case of `CCc1cc(C2(c3ccc(F)c(OCC(F)F)c3)N=C(N)N(C)C2=O)ccc1OC(F)F` (stereo not drawn) [Example 117, 2-Amino-5-[3-(2,2-difluoroethoxy)-4-fluorophenyl]-5-[4-(difluoromethoxy)-3-ethylphenyl]-3-methyl-3,5-dihydro-4H-imidazol-4-one] it was under 0.1 µM; in that of `COCCc1cc(C2(c3ccccc3)N=C(N)N(C)C2=O)ccc1OC(F)F` (stereo not drawn) [Example 142, 2-Amino-5-[4-(difluoromethoxy)-3-(2-methoxyethyl)phenyl]-3-methyl-5-phenyl-3,5-dihydro-4H-imidazol-4-one], under 0.1 µM; in that of `CCc1cc([C@]2(c3ccc(F)c(OCCC(F)F)c3)N=C(N)N(C)C2=O)ccc1OC(F)F` [Example 136, (5R)-2-Amino-5-[4-(difluoromethoxy)-3-ethylphenyl]-5-[3-(3,3-difluoropropoxy)-4-fluorophenyl]-3-methyl-3,5-dihydro-4H-imidazol-4-one], under 0.1 µM.
Same read-out and setting: to `CN1C(=O)C(c2ccc(F)c(C#CCCF)c2)(c2ccc(OC(F)F)c(C3CC3)c2)N=C1N` (stereo not drawn) [Example 208, 2-amino-5-[3-cyclopropyl-4-(difluoromethoxy)phenyl]-5-[4-fluoro-3-(4-fluorobut-1-yn-1-yl)phenyl]-3-methyl-3,5-dihydro-4H-imidazol-4-one] belongs under 0.1 µM.
Still for that read-out and setting: to `CN1C(=O)[C@@](c2cccc(C#CCCCO)c2)(c2ccc(OC(F)F)c(C3CC3)c2)N=C1N` (single isomer, unassigned) [Example 189] belongs 0.11 to 1 µM.
Consider `CN1C(=O)C(c2ccc(F)c(C#CCCF)c2)(c2ccc(OC(F)F)c(CCF)c2)N=C1N` (stereo not drawn) [Example 91, 2-amino-5-[4-(difluoromethoxy)-3-(2-fluoroethyl)phenyl]-5-[4-fluoro-3-(4-fluorobut-1-yn-1-yl)phenyl]-3-methyl-3,5-dihydro-4H-imidazol-4-one], for which the IC50 (read-out: BACE1 IC50) is under 0.1 µM.

Usually IC50 stands for the concentration needed to halve the response being measured.
